Laboratory results as given in patent US12653821B2 (SHANGHAI BOCIMED PHARMACEUTICAL CO., LTD., priority 2020, dated 2026).
≈ marks a conversion by molar mass, not a printed value.

Assays:
physchem = conditions: 37 °C, thermodynamic from solid
Description: The mixtures were shaken at 37° C. for 24 h and filtered through 0.45 μm aqueous-phase filter membranes. The filtrates were collected and the solubility was determined by high performance liquid chromatography. pH3, pH4, pH5 and pH6 represent acetate buffer solutions, and pH7, pH7.4, pH8 and pH9 represent phosphate buffer solutions.

[1] = In vitro dissolution simulation experiment, pH 7.4 phosphate buffer; format: physicochemical; conditions: 37° C.
Description: The mixtures were shaken at 37° C.

[2] = Pharmacokinetic experiment in rats (plasma cariprazine, LC-MS/MS); conditions: intramuscular injection at 9 mg/kg
Description: In the whole experiment, the animals from the intramuscular injection group were given ad libitum access to food and water, and those from the oral intragastrical group were fasted overnight before administration and given access to food 4 h after administration.
Plasma sample collection: about 150 μL of blood was collected from the jugular vein (whole blood was centrifuged within 30 min to isolate plasma) and placed in a tube containing anticoagulant EDTA-K2, and after treatment, plasma was stored in a freezer at −70° C. before use.
Pretreatment of plasma sample: to 30 μL of plasma sample was added 200 μL of internal standard solution (40 ng/mL Glipizide acetonitrile solution); the mixture was vortexed for 1 min and centrifuged at 5800 rpm at 4° C. for 10 min; 100 μL of supernatant was transferred to a new plate and 1 μL of solution was taken for LC-MS/MS analysis.
Secondary mass spectrometry analysis was performed using an electrospray ion source (Turbo spray) in the multiple reaction monitoring (MRM) mode under the positive ion detection mode.

[3] = humans; cited from earlier work

| Structure (SMILES) | solubility at 24 h (physchem; pH 5, aqueous buffer) [µg/mL] | Concentration, 1 (h) [1] [ng/mL] | Concentration, 5 (h) [1] [ng/mL] | Concentration, 7 (h) [1] [ng/mL] | Concentration, 24 (h) [1] [ng/mL] | length of release among the crystalline forms [2] | solubility at 24 h (physchem; pH 3, aqueous buffer) [µg/mL] | solubility at 24 h (physchem; pH 7, aqueous buffer) [µg/mL] | solubility at 24 h (physchem; pH 9, aqueous buffer) [µg/mL] | cariprazine clearance [3] [days] |
| --- | --- | --- | --- | --- | --- | --- | --- | --- | --- | --- |
| CN(C)C(=O)N[C@H]1CC[C@H](CCN2CCN(c3cccc(Cl)c3Cl)CC2)CC1.Cl [Cariprazine hydrochloride] | 10800 |  |  |  |  |  |  |  |  |  |
| CN(C)C(=O)NC1CCC(CCN2CCN(c3cccc(Cl)c3Cl)CC2)CC1 (centres unmarked) [Crystalline form G of cariprazine embonate] |  | 1300 | 2280 | 1840 | 8050 |  |  |  |  |  |
| CN(C)C(=O)NC1CCC(CCN2CCN(c3cccc(Cl)c3Cl)CC2)CC1 (centres unmarked) [Crystalline form A of cariprazine embonate] |  | 1000 | 4100 | 3900 | 2500 | best length of release |  |  |  |  |
| CN(C)C(=O)NC1CCC(CCN2CCN(c3cccc(Cl)c3Cl)CC2)CC1 (centres unmarked) [Amorphous cariprazine embonate, cariprazine embonate] |  | 11940 | 9580 | 7080 | 9900 |  |  |  |  |  |
| CN(C)C(=O)N[C@H]1CC[C@H](CCN2CCN(c3cccc(Cl)c3Cl)CC2)CC1 [Cariprazine, cariprazine] | 243 (≈ 568 µM) |  |  |  |  |  | 1360 (≈ 3190 µM) | 3.2 (≈ 7.49 µM) | 1.4 (≈ 3.28 µM) | 3 to 9 |
| CN(C)C(=O)NC1CCC(CCN2CCN(c3cccc(Cl)c3Cl)CC2)CC1 (centres unmarked) [Crystalline form B of cariprazine embonate] |  | 5300 | 5200 | 2200 | 1700 |  |  |  |  |  |
